Experimental findings from paper PMC7949057, “The cytoprotective protein MANF promotes neuronal survival independently from its role as a GRP78 cofactor” (The Journal of Biological Chemistry, 2021) are described below.

Substitutions are numbered along the chain they refer to.

As usually defined, the Kd is the concentration at which binding is half-saturated. High values mean weaker binding, low ones tighter binding.

Common to all, as to assay type: binding
The target in test [1] is T1, MANF (Homo sapiens, UniProt P55145).
T1 construct: mature secreted protein (about 18 kDa, signal peptide cleaved), made in CHO-derived cells (QMCF, Icosagen), no tag told; amine-labelled with RED-NHS for MST
T1 sequence (P55145 25-182): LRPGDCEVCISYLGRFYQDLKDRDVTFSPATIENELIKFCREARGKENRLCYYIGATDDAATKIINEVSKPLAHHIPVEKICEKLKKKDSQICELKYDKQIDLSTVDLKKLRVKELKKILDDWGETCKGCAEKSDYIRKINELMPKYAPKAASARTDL
Description: microscale thermophoresis. The text has this:
microscale thermophoresis on MANF | MANF did interact with ADP, ATP, and AMP–PNP with Kd-s of […]
A general note: In MST a laser heats a spot of the sample, and binding alters the fluorescence response.

In the next test the target is T2, C-MANF (Homo sapiens, UniProt P55145).
T2 sequence (P55145 120-182 limits assumed): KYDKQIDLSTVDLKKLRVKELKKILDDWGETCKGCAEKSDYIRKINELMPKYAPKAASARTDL
The test can be described thus: […]-HSQC NMR chemical shift perturbation. Conditions: 100 μM C-MANF, ATP:protein 0.5 to 10; 20 mM sodium phosphate pH 6.5, 50 mM NaCl; 25 °C; site at V134, K135.

Test [2] has as its target T3, MANF (Homo sapiens, UniProt P55145, V137G/K138A, form not given).
T3 construct: mature secreted protein (about 18 kDa, signal peptide cleaved), made in CHO-derived cells (QMCF, Icosagen), no tag told; amine-labelled with RED-NHS for MST
T3 sequence (P55145 25-182 V137G/K138A): T1 sequence (P55145 25-182) with V113G, K114A
Description: microscale thermophoresis. The settings on record: labelled MANF 50 nM; 10 mM Na-phosphate pH 7.4, 1 mM MgCl2, 3 mM KCl, 150 mM NaCl, 0.05% Tween-20; 25 °C; 1:1 fit. An excerpt:
microscale thermophoresis on MANF | the mutant was able to bind ATP similarly to the wild-type MANF

The target of a further test is T4, GRP78 (Cricetulus griseus, UniProt G3I8R9).
T4 construct: gene HSPA5; full-length recombinant, N-terminal His-tag, labelled with RED-tris-NTA for MST
T4 sequence (G3I8R9 19-654): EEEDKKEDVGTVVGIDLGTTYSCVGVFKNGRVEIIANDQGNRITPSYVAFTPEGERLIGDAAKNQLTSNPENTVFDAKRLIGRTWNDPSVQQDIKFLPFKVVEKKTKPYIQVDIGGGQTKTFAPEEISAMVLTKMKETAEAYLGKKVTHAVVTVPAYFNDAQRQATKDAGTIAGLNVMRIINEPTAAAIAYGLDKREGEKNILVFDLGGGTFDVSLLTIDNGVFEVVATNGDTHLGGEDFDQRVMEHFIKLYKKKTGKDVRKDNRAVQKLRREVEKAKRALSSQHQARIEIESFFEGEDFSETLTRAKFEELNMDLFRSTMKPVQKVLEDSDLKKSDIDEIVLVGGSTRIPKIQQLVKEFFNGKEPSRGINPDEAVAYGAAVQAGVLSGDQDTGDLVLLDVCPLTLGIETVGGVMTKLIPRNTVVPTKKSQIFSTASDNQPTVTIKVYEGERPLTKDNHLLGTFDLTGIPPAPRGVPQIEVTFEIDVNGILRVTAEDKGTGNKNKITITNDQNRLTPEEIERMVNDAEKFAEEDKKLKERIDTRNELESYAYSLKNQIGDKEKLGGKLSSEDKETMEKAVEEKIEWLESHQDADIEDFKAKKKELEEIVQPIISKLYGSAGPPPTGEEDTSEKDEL
Description: fluorescent nucleotide release (ex […] nm, em […] nm). Conditions: labelled compound; GRP78 1.25 μM, MABA-ADP 1.25 μM, chase ATP 125 μM, no MANF; 50 mM HEPES-KOH pH 7.4, 100 mM KCl, 10 mM MgCl2.

For `Nc1ncnc2c1ncn2[C@@H]1O[C@H](COP(=O)(O)OP(=O)(O)O)[C@@H](O)[C@H]1O` [ADP], the Kd at MANF [1] came to 880 ± 280 µM.
In turn, `Nc1ncnc2c1ncn2[C@@H]1O[C@H](COP(=O)(O)OP(=O)(O)NP(=O)(O)O)[C@@H](O)[C@H]1O` [AMP–PNP] registered a Kd at MANF [1] of 560 ± 170 µM.
Turning to `Nc1ncnc2c1ncn2[C@@H]1O[C@H](COP(=O)(O)OP(=O)(O)OP(=O)(O)O)[C@@H](O)[C@H]1O` [ATP], the figures for the Kd on MANF [1] and on MANF [2] were 830 ± 390 µM and 339 ± 160 µM, respectively. In addition, at C-MANF, the “15N-HSQC NMR chemical shift perturbation” value is on record as “the ATP binding site is located at the C-terminal domain of MANF”.
Turning to `CNc1ccccc1C(=O)NCCCCNc1nc2c(N)ncnc2n1[C@@H]1O[C@H](COP(=O)(O)OP(=O)(O)O)[C@@H](O)[C@H]1O` [MABA–ADP], the koff entry on GRP78 is reported as “determine the mean koff rates of MABA–ADP release”.
